Data on four molecules can be found in patent publication US7119062B1, “Methods and compositions for improved articular surgery using collagen” (Neucoll, Inc., priority 2001, dated 2006).

The test system of one data set is research monkeys. The following applies: cited from earlier work.
The conditions of data set [1]: cited from earlier work.
For data set [2] the following is noted: cited from earlier work. This is another data set of the same source.
For data set [3] the following is noted: adults; cited from earlier work.
In a further data set the test system is mice. The following applies: cited from earlier work.
A short description of data set [4]: Anesthetic effect of lidocaine in intra-articular collagen injections. It is filed as in vivo. As to conditions: 1 mL intra-articular injections of collagen formulation with 0.3% lidocaine.
For data set [5] the following is noted: in vivo.
For data set [6] the following is noted: standard mutagenicity and clastogenicity assays; cited from earlier work.

Like-named read-outs stand apart in the source and are kept apart here.

One may read the LD50 as the dose at which mortality reaches 50%. Regarding `CCCCN1CCCCC1C(=O)Nc1c(C)cccc1C` (stereo not shown) [bupivacaine], the “single dose that produced seizures” value in the data set on research monkeys is given as 4.4 mg/kg. Also, in data set [1] (12.5 mg intra-articular, knees of osteoarthritis patients, 1 hour post-administration), the “change in VAS pain scores at 1 hour” value is recorded as “statistically significant (p=0.007) fall”. The “effect on VAS pain scores after 1 hour” value in data set [1] (12.5 mg intra-articular, knees of osteoarthritis patients, after 1 hour) was “no significant effects”. Further, the duration of analgesia in data set [1] (intra-articular injection) is 2 to 12 h. Also, in data set [1] (intra-articular), the “intra-articular dose that produces analgesia of the joint” value was “approximately 10 mg”. For the same molecule, the “duration of pain relief” value in data set [1] (local anesthetic injected into the operated joint at the end of arthroscopy) is “about 6 hours”. Also, in data set [2] (over a 24 hour period), the maximum dose is given as 400 mg. Moreover, the “therapeutic apparently safe dose” value in data set [2] (single bolus) was “approximately 225 mg”. In data set [3], the half life entry was “approximately 3.5 hours”. The LD50 is given as 6 to 8 mg/kg in the data set with mice (intravenous) and 38 to 54 mg/kg in the data set with mice (subcutaneous).
With `CCN(CC)CC(=O)Nc1c(C)cccc1C` [lidocaine], in data set [1] (equivalent indications, relative to bupivacaine), the “dosage required to achieve the same clinical efficacy as bupivacaine” value is reported as 2 to 10 times. Moreover, the “duration of anesthetic effects of lidocaine” value in data set [4] is recorded as “less than an hour”. In data set [4] (in most cases), the “duration of anesthetic effects of lidocaine, in most cases” value is listed as “less than 10 minutes”.
As for collagen, in data set [5], the “time collagen remains in the knee joints” value is listed as “up to 8 weeks”.
Turning to `CCCCN1CCCC[C@H]1C(=O)Nc1c(C)cccc1C` [levobupivacaine], in data set [6], the genotoxicity result is on record as “non-genotoxic”.
